Data taken from PMC11110157, “Biosynthesis of the bacterial antibiotic 3,7-dihydroxytropolone through enzymatic salvaging of catabolic shunt products” (Chemical Science, 2024).

Experiments:
TrlE [1] = biological target: T1, TrlE (Streptomyces cyaneofuscatus, UniProt A0A2S1JZI9); experiment: X-ray crystallography ([…] A); format: binding; conditions: FAD non-covalently bound, IN conformation
T1 construct: heterologously produced and purified; crystal structure model residues 1-400
T1 sequence (A0A2S1JZI9 1-400): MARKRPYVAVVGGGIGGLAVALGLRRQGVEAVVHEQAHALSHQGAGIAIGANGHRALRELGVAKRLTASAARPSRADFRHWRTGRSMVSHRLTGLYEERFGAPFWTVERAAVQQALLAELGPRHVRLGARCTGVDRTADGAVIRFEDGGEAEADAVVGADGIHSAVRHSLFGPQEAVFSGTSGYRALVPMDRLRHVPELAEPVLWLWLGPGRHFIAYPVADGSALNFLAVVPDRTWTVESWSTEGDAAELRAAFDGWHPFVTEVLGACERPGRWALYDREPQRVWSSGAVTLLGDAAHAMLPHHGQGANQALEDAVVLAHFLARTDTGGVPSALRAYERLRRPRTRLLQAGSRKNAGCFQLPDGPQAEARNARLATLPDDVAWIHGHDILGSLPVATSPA

TrlD [2] = biological target: T2, TrlD (Streptomyces cyaneofuscatus, UniProt A0A2S1JZG9); experiment: co-purification with bound flavin; format: binding; conditions: FAD preferred over FMN as flavin substrate
T2 construct: heterologously produced and purified; fraction co-purified with FAD
T2 sequence (A0A2S1JZG9 1-185): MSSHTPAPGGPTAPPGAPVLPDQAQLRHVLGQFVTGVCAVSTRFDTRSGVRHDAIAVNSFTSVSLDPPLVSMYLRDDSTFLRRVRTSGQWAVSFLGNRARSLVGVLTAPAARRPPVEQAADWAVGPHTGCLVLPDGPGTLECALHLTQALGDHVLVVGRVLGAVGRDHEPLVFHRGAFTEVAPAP

TrlD [3] = biological target: T2, TrlD; experiment: flavin reductase assay, cofactor specificity; format: biochemical; conditions: preferred over NADPH
TrlE [4] = biological target: T3, TrlE (Streptomyces cyaneofuscatus, UniProt A0A2S1JZI9, H213Q); experiment: substrate consumption and product formation assay; format: biochemical; conditions: strongly reduced activity, minor product formation
T3 construct: heterologously produced and purified; crystal structure model residues 1-400

TrlE [5] = biological target: T4, TrlE (Streptomyces cyaneofuscatus, UniProt A0A2S1JZI9, Y217F); experiment: substrate consumption and product formation assay; format: biochemical; conditions: strongly reduced activity
T4 construct: heterologously produced and purified; crystal structure model residues 1-400

TrlE [6] = biological target: T5, TrlE (Streptomyces cyaneofuscatus, UniProt A0A2S1JZI9, H213E); experiment: substrate consumption and product formation assay; format: biochemical; conditions: strongly reduced activity, minor product formation
T5 construct: heterologously produced and purified; crystal structure model residues 1-400

TrlE [7] = biological target: T1, TrlE; experiment: differential scanning fluorimetry; format: binding; conditions: substrate analogue; thermal shift

T3 sequence (A0A2S1JZI9 entry or part of it H213Q): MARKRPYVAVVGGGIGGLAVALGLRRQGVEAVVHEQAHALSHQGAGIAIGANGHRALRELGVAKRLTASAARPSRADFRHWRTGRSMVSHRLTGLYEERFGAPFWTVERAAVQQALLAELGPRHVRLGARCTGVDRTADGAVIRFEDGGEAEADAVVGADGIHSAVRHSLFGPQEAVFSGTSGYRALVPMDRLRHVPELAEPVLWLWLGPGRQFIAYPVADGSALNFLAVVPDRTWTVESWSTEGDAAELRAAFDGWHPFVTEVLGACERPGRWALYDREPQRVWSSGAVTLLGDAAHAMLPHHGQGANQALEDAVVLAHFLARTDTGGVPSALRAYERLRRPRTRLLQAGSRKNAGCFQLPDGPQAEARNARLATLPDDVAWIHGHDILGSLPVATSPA
T4 sequence (A0A2S1JZI9 entry or part of it Y217F): as the sequence (A0A2S1JZI9 entry or part of it H213Q) above, with Q213H, Y217F counted along it
T5 sequence (A0A2S1JZI9 entry or part of it H213E): as the sequence (A0A2S1JZI9 entry or part of it H213Q) above, with Q213E counted along it

Compound: Cc1cc2nc3c(=O)[nH]c(=O)nc-3n(C[C@H](O)[C@H](O)[C@H](O)COP(=O)(O)OP(=O)(O)OC[C@H]3O[C@@H](n4cnc5c(N)ncnc54)[C@H](O)[C@@H]3O)c2cc1C [FAD]
- X-ray crystallography (2.5 A) (TrlE [1]): The non-covalently bound FAD observed in this structure is present in the “IN” conformation
- co-purification with bound flavin (TrlD [2]): a fraction of TrlD was co-purified with bound FAD

Compound: NC(=O)C1=CN([C@@H]2O[C@H](COP(=O)(O)OP(=O)(O)OC[C@H]3O[C@@H](n4cnc5c(N)ncnc54)[C@H](O)[C@@H]3O)[C@@H](O)[C@H]2O)C=CC1 [NADH]
- flavin reductase assay, cofactor specificity (TrlD [3]): TrlD preferred FAD and NADH over FMN and NADPH, respectively

Compound: O=C(O)C1=C(O)CC=CC=C1 [compound 7, dihydrotropone-2-carboxylate]
- substrate consumption and product formation assay (TrlE [4]): For both H213E and H213Q variants, minor product formation was still observed
- substrate consumption and product formation assay (TrlE [5]): the other variants showed strongly reduced catalytic activity, with slowed substrate consumption and product formation
- substrate consumption and product formation assay (TrlE [6]): For both H213E and H213Q variants, minor product formation was still observed

Compound: O=C(O)c1ccccc1O [salicylate]
- differential scanning fluorimetry (TrlE [7]): binding of these compounds to TrlE was confirmed by differential scanning fluorimetry (DSF)

Compound: O=C(O)c1cccccc1=O [tropone-2-carboxylate]
- differential scanning fluorimetry (TrlE [7]): binding of these compounds to TrlE was confirmed by differential scanning fluorimetry (DSF)
